This is an account of results in paper PMC3241989, “ADP Regulates SNF1, the Saccharomyces cerevisiae Homolog of AMP-Activated Protein Kinase” (Cell Metabolism, 2011).

For test [1], the target named is T1, SNF1 complex (Snf1(1-633)Gal83(1-417)Snf4(1-322)) (Saccharomyces cerevisiae, UniProt P12904).
T1 construct: full-length heterotrimer, His-tagged, expressed in E. coli, nickel-Sepharose; phosphorylated on Snf1 Thr210 by CaMKKbeta; with Carbon catabolite-derepressing protein kinase; SNF1 protein kinase subunit beta-3
T1 sequence (P12904 1-322): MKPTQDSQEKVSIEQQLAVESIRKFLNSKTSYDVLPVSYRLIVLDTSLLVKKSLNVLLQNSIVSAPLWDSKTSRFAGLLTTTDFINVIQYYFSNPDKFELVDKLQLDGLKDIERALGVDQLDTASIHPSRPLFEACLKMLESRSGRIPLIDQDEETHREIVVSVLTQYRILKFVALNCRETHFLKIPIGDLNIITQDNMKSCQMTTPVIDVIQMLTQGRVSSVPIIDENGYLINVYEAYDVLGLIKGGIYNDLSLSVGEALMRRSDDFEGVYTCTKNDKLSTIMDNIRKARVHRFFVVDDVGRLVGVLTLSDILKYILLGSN
T1 sequence (P06782 1-633 partner): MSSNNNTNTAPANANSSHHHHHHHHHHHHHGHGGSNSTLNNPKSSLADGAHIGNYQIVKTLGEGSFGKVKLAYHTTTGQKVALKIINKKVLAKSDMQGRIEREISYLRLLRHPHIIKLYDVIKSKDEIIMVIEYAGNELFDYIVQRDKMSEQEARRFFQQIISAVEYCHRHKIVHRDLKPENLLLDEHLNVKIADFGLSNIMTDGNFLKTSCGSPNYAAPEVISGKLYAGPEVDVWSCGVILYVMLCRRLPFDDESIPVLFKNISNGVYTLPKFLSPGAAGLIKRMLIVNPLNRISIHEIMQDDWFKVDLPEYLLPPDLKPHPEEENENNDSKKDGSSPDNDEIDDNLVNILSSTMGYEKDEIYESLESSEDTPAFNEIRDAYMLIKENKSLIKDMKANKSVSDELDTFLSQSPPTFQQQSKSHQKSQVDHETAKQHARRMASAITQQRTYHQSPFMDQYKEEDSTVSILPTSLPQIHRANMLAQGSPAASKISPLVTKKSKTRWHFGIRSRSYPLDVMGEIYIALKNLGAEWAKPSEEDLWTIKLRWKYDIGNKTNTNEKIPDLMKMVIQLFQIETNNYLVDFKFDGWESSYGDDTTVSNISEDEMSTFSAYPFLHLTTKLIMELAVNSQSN
T1 sequence (Q04739 1-417 partner): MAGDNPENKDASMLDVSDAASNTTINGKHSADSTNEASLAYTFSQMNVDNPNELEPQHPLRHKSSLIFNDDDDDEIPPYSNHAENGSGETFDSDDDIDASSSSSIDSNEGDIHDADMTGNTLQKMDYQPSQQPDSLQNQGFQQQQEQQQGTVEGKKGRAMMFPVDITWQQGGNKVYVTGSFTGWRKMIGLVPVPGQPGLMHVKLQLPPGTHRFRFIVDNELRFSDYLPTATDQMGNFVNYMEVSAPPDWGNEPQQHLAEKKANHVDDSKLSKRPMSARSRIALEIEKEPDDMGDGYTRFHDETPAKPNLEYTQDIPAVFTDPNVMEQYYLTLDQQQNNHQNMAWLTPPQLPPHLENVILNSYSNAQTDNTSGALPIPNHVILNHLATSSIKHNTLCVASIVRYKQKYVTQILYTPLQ
Description: fluorescence titration of coumarin nucleotide with SNF1. The test is classed as binding. Particulars: read-out: Kd,I.

In test [2] the target is T1, SNF1 complex (Snf1(1-633)Gal83(1-417)Snf4(1-322)). Description: fluorescence competition against NADH. The conditions noted are these: phosphorylated SNF1, 20°C, 50 mM Tris pH 8, 100 mM NaCl, 1 mM TCEP. It counts as binding.
Test [3] concerns the target T2, regulatory fragment of SNF1 (Snf4(1-322)Sip2(304-415)Snf1(457-633)) (Saccharomyces cerevisiae, UniProt P12904).
T2 construct: C-terminal domains of Snf1 and Sip2 with full-length Snf4 (1-322; b14 prints 1-332), tricistronic E. coli expression, His-tag removed with PreScission protease; with Carbon catabolite-derepressing protein kinase; SNF1 protein kinase subunit beta-2
T2 sequence (P12904 1-322): T1 sequence (P12904 1-322)
T2 sequence (P34164 304-415 partner): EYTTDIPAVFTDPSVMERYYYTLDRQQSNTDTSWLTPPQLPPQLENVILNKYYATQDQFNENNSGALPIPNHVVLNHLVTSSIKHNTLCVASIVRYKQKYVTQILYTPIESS
T2 sequence (P06782 457-633 partner): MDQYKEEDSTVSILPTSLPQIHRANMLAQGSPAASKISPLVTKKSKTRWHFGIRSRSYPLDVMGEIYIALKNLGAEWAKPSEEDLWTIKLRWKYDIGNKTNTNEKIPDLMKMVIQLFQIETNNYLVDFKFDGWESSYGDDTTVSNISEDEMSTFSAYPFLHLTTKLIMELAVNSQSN
Description: X-ray crystallography, crystal soak. Particulars: site 4 of Snf4. The test is classed as binding.

In test [4] the target is T1, SNF1 complex (Snf1(1-633)Gal83(1-417)Snf4(1-322)). Description: protection of Snf1 phospho-Thr210 against dephosphorylation by PP2C (western blot). It counts as biochemical. The conditions noted are these: read-out: half-maximal effect. For orientation: In western blotting, separated proteins are transferred to a membrane and probed.
Where [5] appears, read: no Mg, tight site, competitive with NADH, error is SD, read-out: Kd (μM) / Versus C-AXPs.

`CCN(CC)c1ccc2cc(C(=O)N[C@H]3[C@@H](O)[C@H](n4cnc5c(N)ncnc54)O[C@@H]3COP(=O)(O)OP(=O)(O)O)c(=O)oc2c1` [C-ADP, 3′-(7-diethylaminocoumarin-3-carbonylamino)-3′-deoxyadenosine 5′ diphosphate]: in test [1], the Kd was determined as 9 µM.

For the compound `Nc1ncnc2c1ncn2[C@@H]1O[C@H](COP(=O)(O)OP(=O)(O)OP(=O)(O)O)[C@@H](O)[C@H]1O` [ATP], the Kd in test [2] (setting [5]) amounted to 120 µM.

As to `Nc1ncnc2c1ncn2[C@@H]1O[C@H](COP(=O)(O)O)[C@@H](O)[C@H]1O` [AMP], the “X-ray crystallography, crystal soak” value in test [3] is “strong, well-resolved electron density for AMP, ADP, and NADH”.

As for `NC(=O)c1ccc[n+]([C@@H]2O[C@H](COP(=O)(O)OP(=O)(O)OC[C@H]3O[C@@H](n4cnc5c(N)ncnc54)[C@H](O)[C@@H]3O)[C@@H](O)[C@H]2O)c1` [NAD^+], the Kd in test [2] (read-out: Kd) is greater than 250 µM.

In the case of `NC(=O)C1=CN([C@@H]2O[C@H](COP(=O)(O)OP(=O)(O)OC[C@H]3O[C@@H](n4cnc5c(N)ncnc54)[C@H](O)[C@@H]3O)[C@@H](O)[C@H]2O)C=CC1` [NADH], in test [3], the “X-ray crystallography, crystal soak” value is “strong, well-resolved electron density for AMP, ADP, and NADH”.

For `Nc1ncnc2c1ncn2[C@@H]1O[C@H](COP(=O)(O)OP(=O)(O)O)[C@@H](O)[C@H]1O` [ADP], the Kd in test [2] (setting [5]) turned out to be 72 µM. In test [3], the “X-ray crystallography, crystal soak” value was “strong, well-resolved electron density for AMP, ADP, and NADH”. Further, the EC50 in test [4] was roughly 500 µM.
